In test [1] the target is T1, Mu-type opioid receptor (Homo sapiens, UniProt P35372). Description: Agonist activity at human MOR expressed in CHOK1 cells assessed as induction of beta-arrestin recruitment measured after 90 mins by PathHunter assay relative to control. Format: cell-based. Particulars: CHO-K1. For orientation: Activated receptors often draw arrestin, which recruitment assays turn into a signal.

Test [2] concerns the target Kappa-type opioid receptor (Homo sapiens, UniProt P41145). Description: Agonist activity at human KOR expressed in CHOK1 cells assessed as inhibition of forskolin-stimulated cAMP accumulation incubated for 30 mins by luminescence assay. Format: functional, cell-based, CHO-K1.
Test [3] addresses T1, Mu-type opioid receptor. Description: Activity at human MOR expressed in CHOK1 cells co-expressing beta-arrestin2 EFC assessed as beta-arrestin2 EFC recruitment measured after 90 mins by PathHunter assay. Format: ADME, cell-based, CHO-K1.
The target in test [4] is Delta-type opioid receptor (Homo sapiens, UniProt P41143). Description: Agonist activity at human DOR expressed in CHOK1 cells assessed as inhibition of forskolin-stimulated cAMP accumulation incubated for 30 mins by luminescence assay. Format: functional, cell-based, CHO-K1. Background: cAMP levels reflect the balance of adenylyl cyclase and phosphodiesterase activity.
Delta-type opioid receptor, sequence (P41143 whole entry): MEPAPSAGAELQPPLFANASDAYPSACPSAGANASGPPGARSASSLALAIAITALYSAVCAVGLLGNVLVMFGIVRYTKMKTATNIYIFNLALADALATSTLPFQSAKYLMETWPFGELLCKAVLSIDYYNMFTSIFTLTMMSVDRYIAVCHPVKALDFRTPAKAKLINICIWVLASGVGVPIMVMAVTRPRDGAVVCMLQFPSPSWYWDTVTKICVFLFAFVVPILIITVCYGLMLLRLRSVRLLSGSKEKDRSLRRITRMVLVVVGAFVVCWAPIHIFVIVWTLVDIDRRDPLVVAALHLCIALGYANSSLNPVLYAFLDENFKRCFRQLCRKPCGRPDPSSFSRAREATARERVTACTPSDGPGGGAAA

For test [5], the target named is T1, Mu-type opioid receptor. Description: Activity at human MOR expressed in U2OS cells co-expressing beta-arrestin2 EFC assessed as beta-arrestin2 EFC recruitment by Tango assay. Format: ADME, cell-based.
The target in test [6] is T1, Mu-type opioid receptor. Nature of the test: Agonist activity at human MOR expressed in CHOK1 cells assessed as inhibition of forskolin-stimulated cAMP accumulation incubated for 30 mins by luminescence assay. Format: functional, cell-based, CHO-K1.

Kappa-type opioid receptor, sequence (P41145 whole entry): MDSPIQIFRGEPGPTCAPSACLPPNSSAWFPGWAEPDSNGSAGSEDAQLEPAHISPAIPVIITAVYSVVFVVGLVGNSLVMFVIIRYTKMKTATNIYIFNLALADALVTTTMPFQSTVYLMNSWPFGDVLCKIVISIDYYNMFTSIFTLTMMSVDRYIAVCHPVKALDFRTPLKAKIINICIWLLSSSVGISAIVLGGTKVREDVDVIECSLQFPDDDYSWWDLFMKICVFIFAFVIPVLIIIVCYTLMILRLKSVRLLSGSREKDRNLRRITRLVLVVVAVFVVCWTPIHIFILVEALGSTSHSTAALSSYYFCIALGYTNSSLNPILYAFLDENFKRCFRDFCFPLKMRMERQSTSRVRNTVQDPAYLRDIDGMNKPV
T1 sequence (P35372 whole entry): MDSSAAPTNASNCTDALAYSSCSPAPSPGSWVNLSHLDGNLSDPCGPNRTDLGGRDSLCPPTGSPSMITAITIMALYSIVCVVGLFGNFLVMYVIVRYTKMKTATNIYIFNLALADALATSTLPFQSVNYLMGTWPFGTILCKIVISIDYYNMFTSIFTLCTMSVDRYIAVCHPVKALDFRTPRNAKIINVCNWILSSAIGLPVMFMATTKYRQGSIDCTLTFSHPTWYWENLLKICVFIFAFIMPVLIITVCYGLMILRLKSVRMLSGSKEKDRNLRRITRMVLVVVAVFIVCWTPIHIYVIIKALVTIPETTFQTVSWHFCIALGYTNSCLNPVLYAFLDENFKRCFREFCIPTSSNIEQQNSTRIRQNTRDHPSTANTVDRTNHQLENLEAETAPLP

As usually defined, the Emax is the greatest response seen or fitted, relative to the assay's reference. Take `C[C@@H](Cc1ccsc1)NC(=O)NC[C@H](Cc1ccc(O)cc1)N(C)C`: at Mu-type opioid receptor [1], the Emax amounted to 4.3%.

The term EC50 denotes the concentration that produces a half-maximal response. On to `COC(=O)CC[C@@H]1[C@H]2CCC[C@]1(c1cccc(O)c1)CCN2CCc1ccccc1`, for which the EC50 in test [2] is more than 10000 nM; at Mu-type opioid receptor [3], more than 25000 nM; in test [4] it was more than 10000 nM; on Mu-type opioid receptor [5], more than 25000 nM; on Mu-type opioid receptor [6], 31.3 nM.

On to `COC(=O)CC[C@H]1[C@@H]2CCC[C@@]1(c1cccc(O)c1)CCN2CCc1ccccc1`, for which the EC50 on Mu-type opioid receptor [3] is 1.72 nM; in test [4] it was more than 10000 nM; at Mu-type opioid receptor [5], 12.5 nM; at Mu-type opioid receptor [6] it was 0.46 nM.

As for `COC(=O)CC[C@@H]1[C@@H]2CCC[C@@]1(c1cccc(O)c1)CCN2CCc1ccccc1`, the EC50 in test [2] was 323 nM; on Mu-type opioid receptor [3], more than 25000 nM; in test [4], more than 10000 nM; on Mu-type opioid receptor [6], 854 nM.

Regarding `CCC[C@H]1[C@@H]2CCC[C@@]1(c1cccc(O)c1)CCN2CCc1ccccc1`, the EC50 in test [2] is more than 10000 nM; at Mu-type opioid receptor [3] it was more than 25000 nM; in test [4] it was more than 10000 nM; at Mu-type opioid receptor [5] it was more than 25000 nM.

In the case of `OCCC[C@@H]1[C@H]2CCC[C@]1(c1cccc(O)c1)CCN2CCc1ccccc1`, the EC50 in test [2] is more than 10000 nM; on Mu-type opioid receptor [3], more than 25000 nM; in test [4] it was more than 10000 nM; on Mu-type opioid receptor [5], more than 25000 nM.

As to `CCOC(=O)CC[C@H]1[C@@H]2CCC[C@@]1(c1cccc(O)c1)CCN2CCc1ccccc1`, the EC50 was 35.3 nM in test [2]; 11.6 nM on Mu-type opioid receptor [3]; 49.1 nM in test [4]; more than 25000 nM on Mu-type opioid receptor [5]; 0.24 nM on Mu-type opioid receptor [6].

With `OC/C=C/[C@H]1[C@@H]2CCC[C@@]1(c1cccc(O)c1)CCN2CCc1ccccc1`, the EC50 is more than 10000 nM in test [2], more than 25000 nM on Mu-type opioid receptor [3], more than 10000 nM in test [4] and more than 25000 nM on Mu-type opioid receptor [5].

Regarding `COC(=O)/C=C/[C@H]1[C@@H]2CCC[C@@]1(c1cccc(O)c1)CCN2CCc1ccccc1`, the EC50 in test [2] is more than 10000 nM; on Mu-type opioid receptor [3], more than 25000 nM; in test [4], 143 nM; on Mu-type opioid receptor [6], 132 nM.

As to `OCCC[C@H]1[C@@H]2CCC[C@@]1(c1cccc(O)c1)CCN2CCc1ccccc1`, the EC50 in test [2] is more than 10000 nM; at Mu-type opioid receptor [3], more than 25000 nM; in test [4], 80.9 nM; at Mu-type opioid receptor [5], more than 25000 nM.

As to `Oc1cccc([C@@]23CCC[C@H]([C@H]2O)N(CCc2ccccc2)CC3)c1`, the EC50 came out at 323 nM in test [2], 6.08 nM on Mu-type opioid receptor [3], 2.6 nM in test [4] and 0.017 nM at Mu-type opioid receptor [6].

For `O=C(O)CC[C@H]1[C@@H]2CCC[C@@]1(c1cccc(O)c1)CCN2CCc1ccccc1`, the EC50 is more than 10000 nM in test [2]; more than 25000 nM on Mu-type opioid receptor [3]; more than 10000 nM in test [4]; more than 25000 nM on Mu-type opioid receptor [5]; 31.7 nM at Mu-type opioid receptor [6].

The record behind these values is ChEMBL document CHEMBL4680063, “G-Protein biased opioid agonists: 3-hydroxy-N-phenethyl-5-phenylmorphans with three-carbon chain substituents at C9” (RSC Med Chem, 2020).
